Results reported in PMC10819888, “Benzimidazole-Based Derivatives as Apoptotic Antiproliferative Agents: Design, Synthesis, Docking, and Mechanistic Studies” (Molecules, 2024).

Legend:
Test in all cases: NCI-60 one-dose assay
Type in all cases: cell-based
[1] = tested on: CAKI-1; conditions: Homo sapiens, CAKI-1 (Renal Cancer), read-out: Cell Inhibition Percent
Description: (§1) The final compounds were submitted to the National Cancer Institute, Bethesda, USA, for screening in vitro for anti-cancer. […] compounds, 4a–j, 5, and 6, were selected according to the Development Therapeutic Program (DTP) protocol. The selected compounds were evaluated for their in vitro cytotoxic activity against a panel of sixty cancer cell lines (NCI-60 cell line panel) derived from six cell lines panel of leukemia, nine cell lines of lung cancer, six cell lines of CNS cancer, seven cell lines of colon cancer, eight cell lines of melanoma, six cell lines of ovarian cancer, eight cell lines of renal cancer, two cell lines of prostate cancer, and eight cell lines of breast cancer, representing the full nine human systems as leukemia, melanoma, and cancers of the lung, colon, brain, breast, ovary, kidney, and prostate.
(§2) The selected compounds 4a–j, 5, and 6 were tested at a single concentration of 10 µM. The screening results for the selected compounds are illustrated in Table 1.
(§3) The NCI anti-cancer screening methodology has been described in detail elsewhere (http://www.dtp.nci.nih.gov, accessed on 20 February 2021). Following the Drug Evaluation Branch protocol, National Cancer Institute, Bethesda, USA, a primary anti-cancer assay was performed on approximately 60 human tumor cell line panels derived from nine neoplastic diseases.

[2] = tested on: COLO 205; conditions: Homo sapiens, COLO 205 (Colon Cancer), read-out: Cell Inhibition Percent
Description: as §1, §2, §3

[3] = tested on: DU-145; conditions: Homo sapiens, DU-145 (Prostate Cancer), read-out: Cell Inhibition Percent
Description: as §1, §2, §3

[4] = tested on: EKVX; conditions: Homo sapiens, EKVX (Non-Small Cell Lung Cancer), read-out: Cell Inhibition Percent
Description: as §1, §2, §3

[5] = tested on: HCC-2998; conditions: Homo sapiens, HCC-2998 (Colon Cancer), read-out: Cell Inhibition Percent
Description: as §1, §2, §3

[6] = tested on: HCT-15; conditions: Homo sapiens, HCT-15 (Colon Cancer), read-out: Cell Inhibition Percent
Description: as §1, §2, §3

[7] = tested on: HL-60(TB); conditions: Homo sapiens, HL-60(TB) (Leukemia), read-out: Cell Inhibition Percent
Description: as §1, §2, §3

[8] = tested on: HOP-62; conditions: Homo sapiens, HOP-62 (Non-Small Cell Lung Cancer), read-out: Cell Inhibition Percent
Description: as §1, §2, §3

[9] = tested on: HT29; conditions: Homo sapiens, HT-29, HT29 (Colon Cancer), read-out: Cell Inhibition Percent
Description: as §1, §2, §3

[10] = tested on: IGROV1; conditions: Homo sapiens, IGROV-1, IGROV1 (ovarian cancer), read-out: Cell Inhibition Percent
Description: as §1, §2, §3

[11] = tested on: KM12; conditions: Homo sapiens, KM12 (Colon Cancer), read-out: Cell Inhibition Percent
Description: as §1, §2, §3

[12] = tested on: LOX IMVI; conditions: Homo sapiens, LOX IMVI (Melanoma), read-out: Cell Inhibition Percent
Description: as §1, §2, §3

[13] = tested on: M14; conditions: Homo sapiens, M14 (Melanoma), read-out: Cell Inhibition Percent
Description: as §1, §2, §3

[14] = tested on: MALME-3M; conditions: Homo sapiens, MALME-3M (Melanoma), read-out: Cell Inhibition Percent
Description: as §1, §2, §3

[15] = tested on: MDA-MB-435; conditions: Homo sapiens, MDA-MB-435 (Melanoma), read-out: Cell Inhibition Percent
Description: as §1, §2, §3

[16] = tested on: MDA-MB-468; conditions: Homo sapiens, MDA-MB-468 (Breast Cancer), read-out: Cell Inhibition Percent
Description: as §1, §2, §3

[17] = tested on: NCI-H226; conditions: Homo sapiens, NCI-H226 (Non-Small Cell Lung Cancer), read-out: Cell Inhibition Percent
Description: as §1, §2, §3

[18] = tested on: NCI-H23; conditions: Homo sapiens, NCI-H23 (Non-Small Cell Lung Cancer), read-out: Cell Inhibition Percent
Description: as §1, §2, §3

[19] = tested on: OVCAR-3; conditions: Homo sapiens, OVCAR-3 (ovarian cancer), read-out: Cell Inhibition Percent
Description: as §1, §2, §3

[20] = tested on: OVCAR-4; conditions: Homo sapiens, OVCAR-4 (ovarian cancer), read-out: Cell Inhibition Percent
Description: as §1, §2, §3

[21] = tested on: PC-3; conditions: Homo sapiens, PC-3 (Prostate Cancer), read-out: Cell Inhibition Percent
Description: as §1, §2, §3

[22] = tested on: RPMI-8226; conditions: Homo sapiens, RPMI-8226 (Leukemia), read-out: Cell Inhibition Percent
Description: as §1, §2, §3

[23] = tested on: SF-295; conditions: Homo sapiens, SF-295 (CNS cancer), read-out: Cell Inhibition Percent
Description: as §1, §2, §3

[24] = tested on: SK-MEL-2; conditions: Homo sapiens, SK-MEL-2 (Melanoma), read-out: Cell Inhibition Percent
Description: as §1, §2, §3

[25] = tested on: SK-MEL-5; conditions: Homo sapiens, SK-MEL-5 (Melanoma), read-out: Cell Inhibition Percent
Description: as §1, §2, §3

[26] = tested on: SK-OV-3; conditions: Homo sapiens, SK-OV-3 (ovarian cancer), read-out: Cell Inhibition Percent
Description: as §1, §2, §3

[27] = tested on: SW-620; conditions: Homo sapiens, SW-620 (Colon Cancer), read-out: Cell Inhibition Percent
Description: as §1, §2, §3

[28] = tested on: TK-10; conditions: Homo sapiens, TK-10 (Renal Cancer), read-out: Cell Inhibition Percent
Description: as §1, §2, §3

[29] = tested on: U251; conditions: Homo sapiens, U-251, U251 (CNS cancer), read-out: Cell Inhibition Percent
Description: as §1, §2, §3

[30] = tested on: UACC-257; conditions: Homo sapiens, UACC-257 (Melanoma), read-out: Cell Inhibition Percent
Description: as §1, §2, §3

[31] = tested on: UO-31; conditions: Homo sapiens, UO-31 (Renal Cancer), read-out: Cell Inhibition Percent
Description: as §1, §2, §3

SMILES | inhibition at 10 µM [1] [%] | inhibition at 10 µM [2] [%] | inhibition at 10 µM [3] [%] | inhibition at 10 µM [4] [%] | inhibition at 10 µM [5] [%] | inhibition at 10 µM [6] [%] | inhibition at 10 µM [7] [%] | inhibition at 10 µM [8] [%] | inhibition at 10 µM [9] [%] | inhibition at 10 µM [10] [%] | inhibition at 10 µM [11] [%] | inhibition at 10 µM [12] [%] | inhibition at 10 µM [13] [%] | inhibition at 10 µM [14] [%] | inhibition at 10 µM [15] [%] | inhibition at 10 µM [16] [%] | inhibition at 10 µM [17] [%] | inhibition at 10 µM [18] [%] | inhibition at 10 µM [19] [%] | inhibition at 10 µM [20] [%] | further results
O=C(NN=Cc1ccc([N+](=O)[O-])cc1)c1ccc2[nH]c(-c3ccc(Cl)cc3)nc2c1 [Compound 4c, N′-(4-Nitrobenzylidene)-2-(4-chlorophenyl)-1H-benzimidazole-5-carbohydrazide] | 57.2 | 97.7 | 58 | 51 | 85.1 | 70.1 | 93.4 | 55.2 | 91.8 | 80.9 | 87 | 101 | 74.1 | 92.2 | 52.4 | 139 | 45.2 | 83.8 | 88.7 | 77 | inhibition at 10 µM [21]: 78.6%; inhibition at 10 µM [22]: 89.2%; inhibition at 10 µM [23]: 78.3%; inhibition at 10 µM [24]: 33.3%; inhibition at 10 µM [25]: 97.4%; inhibition at 10 µM [26]: 39.5%; inhibition at 10 µM [27]: 87.3%; inhibition at 10 µM [28]: 10.2%; inhibition at 10 µM [29]: 77.7%; inhibition at 10 µM [30]: 74.9%; inhibition at 10 µM [31]: 57.4%
O=C(NN=Cc1ccc(F)cc1)c1ccc2[nH]c(-c3ccc(Cl)cc3)nc2c1 [Compound 4d, N′-(4-Fluorobenzylidene)-2-(4-chlorophenyl)-1H-benzimidazole-5-carbohydrazide] | 15.1 | 58.7 | 14.6 | 26.8 | 21 | 33.2 | 62.6 | 39.5 | 95.7 | 59.8 | 35.1 | 66 | 39.8 | 88.2 | 6.12 | 23.9 | 6.86 | 38.6 | 29.3 | 63.6 | inhibition at 10 µM [21]: 53.2%; inhibition at 10 µM [22]: 32.5%; inhibition at 10 µM [23]: 68.7%; inhibition at 10 µM [24]: 16.7%; inhibition at 10 µM [25]: 11%; inhibition at 10 µM [26]: 1.74%; inhibition at 10 µM [27]: 53.7%; inhibition at 10 µM [28]: 5.63%; inhibition at 10 µM [29]: 98.4%; inhibition at 10 µM [30]: 0%; inhibition at 10 µM [31]: 24.6%
O=C(NN=Cc1ccc(Cl)cc1)c1ccc2[nH]c(-c3ccc(Cl)cc3)nc2c1 [Compound 4e, N′-(4-Chlorobenzylidene)-2-(4-chlorophenyl)-1H-benzimidazole-5-carbohydrazide] | 38.8 | 124 | 69.5 | 91.8 | 96.3 | 95.3 | 94.2 | 92 | 98.3 | 127 | 129 | 156 | 80.3 | 159 | 61.2 | 144 | 0.67 | 100 | 153 | 118 | inhibition at 10 µM [21]: 125%; inhibition at 10 µM [22]: 97.2%; inhibition at 10 µM [23]: 149%; inhibition at 10 µM [24]: 61.1%; inhibition at 10 µM [25]: 63.8%; inhibition at 10 µM [26]: 50.2%; inhibition at 10 µM [27]: 128%; inhibition at 10 µM [28]: 104%; inhibition at 10 µM [29]: 115%; inhibition at 10 µM [30]: 68.3%; inhibition at 10 µM [31]: 78.4%
O=C(NN=Cc1ccc(Cl)cc1Cl)c1ccc2[nH]c(-c3ccc(Cl)cc3)nc2c1 [Compound 4f, N′-(2,4-Dichlorobenzylidene)-2-(4-chlorophenyl)-1H-benzimidazole-5-carbohydrazide] | 9.61 | 0 | 0 | 13.7 | 3.25 | 0 | 5.98 | 5.89 | 2.18 | 31 | 1.75 | 18.9 | 17.1 | 9.55 | 0 | 0 | 18.8 | 4.26 | 0 | 0 | inhibition at 10 µM [21]: 7.03%; inhibition at 10 µM [22]: 15.4%; inhibition at 10 µM [23]: 1.19%; inhibition at 10 µM [24]: 2.9%; inhibition at 10 µM [25]: 2.92%; inhibition at 10 µM [26]: 7.23%; inhibition at 10 µM [27]: 4.3%; inhibition at 10 µM [28]: 0%; inhibition at 10 µM [29]: 41%; inhibition at 10 µM [30]: 6.59%; inhibition at 10 µM [31]: 27.8%
COc1ccc(C=NNC(=O)c2ccc3[nH]c(-c4ccc(Cl)cc4)nc3c2)cc1 [Compound 4g, N′-(4-Methoxybenzylidene)-2-(4-chlorophenyl)-1H-benzimidazole-5-carbohydrazide] | 39.5 | 77.1 | 20.7 | 70.6 | 48.9 | 42.5 | 3.67 | 69.7 | 78.1 | 85.4 | 82.7 | 99.1 | 73.8 | 93.5 | 31.5 | 75.8 | 26.2 | 58.5 | 79.9 | 131 | inhibition at 10 µM [21]: 104%; inhibition at 10 µM [22]: 40.8%; inhibition at 10 µM [23]: 139%; inhibition at 10 µM [24]: 35.9%; inhibition at 10 µM [25]: 66.3%; inhibition at 10 µM [26]: 27.7%; inhibition at 10 µM [27]: 75.6%; inhibition at 10 µM [28]: 60.9%; inhibition at 10 µM [29]: 92%; inhibition at 10 µM [30]: 45.6%; inhibition at 10 µM [31]: 18.1%
